Entries after “also recorded” stand apart in the source; their conditions may differ.
Tests used:
U2-OS cells = assay: Cell cytotoxicity test (MTT); type: cell-based, human; settings: dose dependent
Experimental: Human osteosarcoma U2-OS cell lines were used for the cytotoxicity assay. Cells were seeded in triplicate to clear 96-well plates with 4000 cells/well then grown for 48 h. Cells were treated with molecules at desired concentrations (final DMSO concentration 0.5%) in DMEM. Cells were incubated with molecules for 48 h. Cell viability was measured by adding tetrazolium dye 3-[4,5-dimethylthiazol-2-yl]-2,5 diphenyl tetrazolium bromide (MTT) which is converted to insoluble purple color formazan as a result of the mitochondrial activity. To measure the purple color after incubating cells with MTT reagent medium was replaced with DMSO:EtOH (50:50) mixture for 4 hours and absorbance of wells were measured at 570 nm by the spectrophotometer. Cells treated with 5% final DMSO concentration (known as toxic to cells) as […] controls.
Initially, toxicity of selected molecules was assessed by MTT using immortalized human osteosarcoma (U2-OS) cells at concentrations of 20 μM, 10 μM and, 2.5 μM. Molecules with relative cell viability less than 90% at 2.5 μM were eliminated. […] In this assay the effect of the 14 molecules were measured according to the CRYL::LUC decay rate. […] Then cells were treated with cycloheximide (CHX) to inhibit the protein synthesis and bioluminescence was recorded for 18 h. […]

C57BL/6J mice = assay: Circadian behavioral analysis (locomotor activity); type: in vivo, mouse; settings: constant dark conditions
Experimental: C57BL/6J mice were synchronized 10 days under 12 h:12 h light-dark cycles. After 10 days mice were treated with intraperitoneal dose of 60 mg/kg FORMULA I or vehicle for 14 days and kept under constant darkness (n=12). Locomotor activity of mice were recorded for additional 10-days without any injection. During these days locomotor activity of mice were recorded by ClockLab (Actimetrics) software program. FIG. 7A Representative locomotor activity of mice injected with vehicle (n=5) or FIG. 7B FORMULA I (n=7). FIG. 7C Period and FIG. 7D amplitude of mice under different conditions and injected with vehicle or FORMULA I. Period and amplitude values were calculated by using ClockLab Analysis (Actimetrics) program. Statistical significance was evaluated using one-way analysis of variance (ANOVA), followed by a Tukey's multiple comparisons test using Prism software (GraphPad Software)
Mice were housed in individual cages within a temperature- and humidity-controlled, light-tight enclosure. Each cage contained a running wheel. Food and water were allowed ad libitum. Animals were entrained to a 12:12 h L:D cycle for ≥2 weeks before being released into constant darkness. Then, vehicle (n=5) and FORMULA I (n=6) administered to animals for 5 days and then animals were kept under constant conditions for more than 2 weeks. […]

[1] = system: Dbp, Cry1, Cry2, Per2 mRNA; assay: RT-qPCR of clock genes, synchronized U2-OS cells; type: cell-based, human; settings: 10 μM, 72-92 h
Experimental: FIGS. 3A-3G are an illustration of FORMULA I decreased CRY1 level in synchronized U2-OS cells. Confluent U2-OS cells were synchronized by 2 h treatment with dexamethasone ([…]) and medium replaced with fresh medium containing FORMULA I or solvent (DMSO final 0.5%). Cells were harvested at indicated time points. FIGS. 3A-3B show lysed cells were analyzed via protein immunoblot technique. […] CRY levels in DMSO control divided by that of in FORMULA I treated samples were reported (mean±SEM, n=4). FIGS. 3C-3G show cells were subjected to reverse-transcription-quantitative polymerase chain reaction (RT-qPCR). […] Expression level of genes was normalized according to the expression level of that gene at 72ndh. (Data represent the mean±SEM, n=3 with duplicates ***: p<0.001 **: p<0.005, *: p<0.05 versus DMSO control by two-way ANOVA).
QIAGEN RNeasy Mini Kit was used to isolate the mRNA. Protocol provided by the manufacturer was followed. […] Quantity of RNA was determined by Nanodrop 2000 (Thermo Scientific). […] For quantitative real time PCR (qRT-PCR) analysis cDNAs were further diluted 5-fold (1:5). mRNA expression levels were calculated by qRT-PCR with the SYBR Green. […] 10 seconds denaturation, 57 to 62° C. for 20 seconds annealing (the degree is determined by primer type) and 72° C. for 30 seconds of elongation, 35 cycles. […]

Cc1c(C(=O)N2CCc3ccccc32)oc2ccc3c(c12)C(=O)CC(C)(c1ccc(Cl)cc1)O3 (centres unmarked) [FORMULA I, 11-(4-chlorophenyl)-4-(2,3-dihydro-1H-indole-1-carbonyl)-3,11-dimethyl-5,10,dioxatricyclo[7.4.0.0,2,6,]trideca-1,3,6,8-tetraen-13-one]
toxicity on U2-OS cells (U2-OS cells): no effect on the stability of LUC and any toxic effect
amplitude of locomotor activity (C57BL/6J mice): statistically significant impact on the amplitude
shortening of locomotor period length versus vehicle (C57BL/6J mice): approximately 14 min
Dbp and Per2 mRNA levels [1]: Increase in clock output genes of the Dbp and Per2 mRNA levels; also recorded: increased the level of Dbp and Per2
peak time and abundance of Cry1, Cry2 (and Dbp) mRNA [1]: changed the peak time without significantly changing their overall abundance; also recorded: changed the peak time of Dbp, Cry1 and Cry2

From US20230104487A1, “11-(4-CHLOROPHENYL)-4-(2,3-DIHYDRO-1H-INDOLE-1-CARBONYL)-3,11-DIMETHYL-5,10,DIOXATRICYCLO[7.4.0.0,2,6,]TRIDECA-1,3,6,8-TETRAEN-13-ONE AND DERIVATIVES AS DESTABILIZER OF CRY1 FOR THE TREATMENT OF CIRCADIAN RHYTHM ASSOCIATED DISEASES AND DISORDERS” (KOC UNIVERSITESI, priority 2019, published 2023)
